Values after ≈ are worked out from the molar mass of the structure shown. Values joined by “and” are separate entries in the source; they are usually repeats but may differ in a detail not shown here. Equal entries are not always repeated. Where two headings read alike, the source gives them in different places.
Assays:
[1] = molecular target: T1, Glucosylceramide synthase (GCS) (Canis lupus familiaris, UniProt A0A8I3MXG6); experiment: GCS enzymatic assay with MDCK cell lysate; format: biochemical, canine
T1 construct: The MDCK, K-562, and L6 cell lines all endogenously express GCS enzyme; host or cells: MDCK (canine kidney) cell lysate
T1 sequence (A0A8I3MXG6 1-394): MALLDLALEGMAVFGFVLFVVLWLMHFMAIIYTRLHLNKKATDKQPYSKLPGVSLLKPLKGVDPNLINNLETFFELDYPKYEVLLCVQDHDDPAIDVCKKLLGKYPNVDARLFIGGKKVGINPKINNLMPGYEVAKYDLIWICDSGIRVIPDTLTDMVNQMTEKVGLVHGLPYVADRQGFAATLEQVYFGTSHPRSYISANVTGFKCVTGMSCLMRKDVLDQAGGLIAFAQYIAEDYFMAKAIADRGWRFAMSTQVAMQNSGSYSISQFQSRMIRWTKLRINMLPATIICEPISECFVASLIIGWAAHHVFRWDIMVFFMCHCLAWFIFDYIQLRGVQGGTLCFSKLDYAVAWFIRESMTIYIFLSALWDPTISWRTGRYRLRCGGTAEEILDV
Excerpt: The reaction product, C6-NBD-glucosylceramide, could then be detected and quantified by LC-MS/MS. The inventors used this method to test and validate the effect of various GCS inhibitors on GCS enzyme activity from different species.
The GCS enzyme activity was detected by using the fluorescent substrate, C6-NBD-ceramide, and monitoring the formation of the fluorescent reaction product, C6-NBD-glucosylceramide. First, the inventors used cell lysate derived from a canine kidney cell line (MDCK, ATCC Cat #CCL-34™) as the source of GCS and tested the inhibitory activity of several control and test compounds.
GCS activity was evaluated using a GCS enzyme assay derived from MDCK or L6 cell lysates.
MDCK or L6 cell lysates were prepared using M-PER in the presence of a protease inhibitor cocktail. Each 100 mm dish (100% confluent) was lysed with 250 μl of M-PER containing protease inhibitors. Protein concentration was determined using Pierce BCA protein assay kit.
The final concentration of DMSO was 0.1% in both compound treated and DMSO only treated samples. Each individual reaction was terminated with 11 volumes of methanol:acetonitrile (6:5; containing 200 ng/ml Tolbutamide as internal control). After sufficient mixing, reactions were centrifuged at 2000 rpm for 10 mins, supernatant was injected into the LC-MS/MS for analysis.
The quantitative analysis of C6-NBD-glucosylceramide was performed on a Shimadzu ultra-fast liquid chromatography coupled with API 4000 mass spectrometer. Analyst 1.5 software packages were used to control the LC-MS/MS system, as well as for data acquisition and processing.
The C6-NBD-glucosylceramide reading was normalized first by dividing the peak area of C6-NBD-glucosylceramide with the peak area of the internal standard, and then the amount was calculated according to the standard curve generated in the same assay run. For the cell based assay results, the amount of C6-NBD-glucosylceramide was also normalized by the protein concentration of the cell samples.
IC50 values were generated from sigmoidal dose-response (variable slope) curves with GraphPad Prism software (GraphPad Software, Inc., San Diego, CA) using the percent inhibition of C6-NBD-glucosylceramide accumulation relative to DMSO control.

[2] = Approximate solubility at 25° C. by visual observation; format: physicochemical; conditions: thermodynamic from solid
Experimental: Free form Crystalline Form A of Compound 1 was used as the starting material for salt screening and selection study. […] Max. volume of each solvent added was 1 mL.

[3] = Hygroscopicity by DVS at 25° C.; format: physicochemical
[4] = Water activity study (Form A + Form C slurry); format: physicochemical; conditions: ethanol/water mixtures, a.w. 0.2-1.0, 25° C. or 50° C., XRPD of wet cake
Experimental: Water activity experiments were conducted at 25° C. or 50° C. to determine critical water activity between anhydrate and hydrate. […] The mixtures were stirred at 25° C. or 50° C. for at least 2 days. The obtained solid part (wet cake) was investigated by XRPD.
The results of water activity study in different solvents at 25° C. and 50° C. are shown in Table 10 and Table 11, respectively. The water activity of a binary solvent system was calculated based on UNIFAC method (UNIQUAC Functional-group Activity Coefficients).

[5] = Competitive equilibration experiment (Form A + D + E slurry); format: physicochemical; conditions: ethanol, acetone, acetonitrile at 5° C., 25° C. and 50° C., 3 days, XRPD
Experimental: Competitive slurry was conducted to determine thermodynamic relationships of Crystalline Form A, Crystalline Form D and Crystalline Form E of Compound 1. […] The mixtures were stirred at 5° C., 25° C. or 50° C. for 3 days. Obtained solid part (wet cake) was investigated by XRPD.

[6] = Solid state stability, 1 week (HPLC purity, color, XRPD); conditions: for Bulk (XRPD) / Purity, Bulk (HPLC): Solid state, 1 week; for Purity, Bulk (HPLC): initial purity 99.8%
[7] = 0.1 μM, 60 μg MDCK lysate/reaction, N = 1, N = 2

O=C(N[C@H](CN1CCCC1)[C@H](O)c1ccc(OC2CC2)c(Cl)c1)/C(=N/O)c1ccc2cc(Cl)ccc2c1 [Crystalline Form A of Compound 1]
C6-NBD-Ceramide (Normalized to internal control) [1, 7]: 5.04 and 4.88 | C6-NBD-Glucosylceramide Concentration [1, 7]: 33.1 nM and 32.5 nM | Inhibition [1, 7]: 96.72% | inhibition at 0.1 µM [1, 7]: 96.7% | IC50 ([1]; MDCK cell lysate as source of GCS, C6-NBD-glucosylceramide by LC-MS/MS): 7.66 nM | solubility ([2]; organic solvent or mixture, Acetone): 16700 to 25000 µg/mL (≈ 30.8 to 46.1 mM) | solubility ([2]; organic solvent or mixture, Acetonitrile): < 5000 µg/mL | solubility ([2]; organic solvent or mixture, Ethanol): 5000 to 5500 µg/mL (≈ 9.22 to 10.1 mM) | solubility ([2]; organic solvent or mixture, Ethyl acetate): < 5000 µg/mL | solubility ([2]; Water): < 5000 µg/mL | XRPD after DVS test [3]: No form change | hygroscopicity (DVS) [3]: slightly hygroscopic | Desorp. (DVS) ([3]; 0% RH): 0.02% | Sorp. (water uptake by DVS) ([3]; 0% RH): 0.02% | Desorp. (DVS) ([3]; 10% RH): 0.04% | Sorp. (water uptake by DVS) ([3]; 10% RH): 0.03% | Desorp. (DVS) ([3]; 20% RH): 0.05% | Sorp. (water uptake by DVS) ([3]; 20% RH): 0.04% | Desorp. (DVS) ([3]; 30% RH): 0.06% | Sorp. (water uptake by DVS) ([3]; 30% RH): 0.05% | Desorp. (DVS) ([3]; 40% RH): 0.09% | Sorp. (water uptake by DVS) ([3]; 40% RH): 0.06% | Sorp. (water uptake by DVS) ([3]; 50% RH): 0.09% | Sorp. (water uptake by DVS) ([3]; 60% RH): 0.12% | Sorp. (water uptake by DVS) ([3]; 70% RH): 0.14% | Sorp. (water uptake by DVS) ([3]; 80% RH): 0.22% | Sorp. (water uptake by DVS) ([3]; 90% RH): 0.39% | water uptake increased from 40% RH to 90% RH ([3]; DVS): about 0.33% | XRPD after DVS test ([3]; listed as Free form Crystalline Form A of Compound 1): No form change | XRPD after DVS test ([3]; listed as free form Crystalline Form A of Compound 1): no form change | form stability in water activity study [4]: stable in a wide range of water activity | thermodynamic stability in competitive slurry [5]: the most stable form | chemical and physical stability ([6]; 25° C./92% RH open container, 40° C./75% RH open container, 60° C. tight container, one week): chemically and physically stable | Bulk (XRPD) ([6]; 25° C./92% RH, open container): No form change | Purity, Bulk (HPLC) ([6]; 25° C./92% RH, open container): 99.8% | Bulk (XRPD) ([6]; 40° C./75% RH, open container): No form change | Purity, Bulk (HPLC) ([6]; 40° C./75% RH, open container): 99.8% | Bulk (XRPD) ([6]; 60° C., tight container): No form change | Purity, Bulk (HPLC) ([6]; 60° C., tight container): 99.8%
